# In patent US20240270821A1, “GIP/GLP1/GCG TRI-RECEPTOR AGONISTS AND USES THEREOF” (priority 2023, published 2024):
# Like-named read-outs stand apart in the source and are kept apart here. Starred links: 1 amine or outer side, 2 acyl side, 3 side chain; linkers in the order of their positions; H or OH if unused. Non-standard residues stand in square brackets, D forms with d. Residues, ends and D or L forms follow the SMILES beside them. Groups on a side chain read outwards from the residue. No end group written: not given here. *: point of attachment. C20 diacid = O=C(O)CCCCCCCCCCCCCCCCCCC(=O)*; C18 diacid = O=C(O)CCCCCCCCCCCCCCCCC(=O)*; Phe(4-CN) = N#Cc1ccc(C[C@H](N)C(=O)O)cc1; αMePhe(2-F) = C[C@](N)(Cc1ccccc1F)C(=O)O; γGlu = O=C(O)[C@H](CCC(=O)[*:2])N[*:1]; αMe4Pal = C[C@](N)(Cc1ccncc1)C(=O)O; αMeY = C[C@](N)(Cc1ccc(O)cc1)C(=O)O; 4Pal = N[C@@H](Cc1ccncc1)C(=O)O; αMeL = CC(C)C[C@](C)(N)C(=O)O; αMeS = C[C@](N)(CO)C(=O)O; Orn = NCCC[C@H](N)C(=O)O; AEEA = NCCOCCOCC(=O)O; Aib = CC(C)(N)C(=O)O
# Columns and labels:
# Format in all cases: cell-based
# [1] = target: T1, hGLP-1R (Homo sapiens, UniProt P43220); experiment: Functional cAMP activity in the presence of 1% HSA; conditions: read-out: cAMP Rel EC50, hGLP-1R
# [2] = target: T2, hGIPR (Homo sapiens, UniProt P48546); experiment: Functional cAMP activity in the presence of 1% HSA; conditions: read-out: cAMP Rel EC50, hGIPR
# T2 sequence (P48546 22-466): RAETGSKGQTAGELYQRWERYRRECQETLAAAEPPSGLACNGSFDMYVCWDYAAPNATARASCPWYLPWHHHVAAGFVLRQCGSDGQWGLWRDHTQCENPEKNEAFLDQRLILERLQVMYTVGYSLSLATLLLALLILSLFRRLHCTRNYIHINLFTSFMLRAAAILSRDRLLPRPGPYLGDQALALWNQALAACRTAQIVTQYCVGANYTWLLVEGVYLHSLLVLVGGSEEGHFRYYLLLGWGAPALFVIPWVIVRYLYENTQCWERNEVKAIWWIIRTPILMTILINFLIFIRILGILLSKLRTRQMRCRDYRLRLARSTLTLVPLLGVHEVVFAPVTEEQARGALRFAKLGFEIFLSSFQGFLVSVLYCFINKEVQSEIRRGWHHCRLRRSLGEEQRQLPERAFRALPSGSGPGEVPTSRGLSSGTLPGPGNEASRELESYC
# [3] = target: T2, hGIPR; experiment: Functional cAMP activation in the presence of 0.1% casein (no HSA); conditions: read-out: Relative cAMP EC50, hGIPR;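 as to Relative cAMP EC50, hGIPR: intracellular cAMP rise after 30 min at 37 °C read by HTRF against a standard curve, scaled between buffer alone (0%) and top control ligand concentration (100%), four-parameter fit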;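 as to Relative cAMP EC50, hGLP-1R: intracellular cAMP rise after 30 min at 37 °C read by HTRF, normalized between buffer only (0%) and maximal control ligand (100%), four-parameter variable-slope fit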;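 as to Relative cAMP EC50, hGcgR: intracellular cAMP rise after 30 min at 37 °C, read by HTRF against a cAMP standard curve, scaled from buffer only (0%) to maximal control ligand response (100%)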
# [4] = target: hGcgR (Homo sapiens, UniProt P47871); experiment: as above; conditions: read-out: Relative cAMP EC50, hGcgR;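 also: intracellular cAMP rise after 30 min at 37 °C, read by HTRF against a cAMP standard curve, scaled from buffer only (0%) to maximal control ligand response (100%)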
# [5] = target: T1, hGLP-1R; experiment: as above; conditions: read-out: Relative cAMP EC50, hGLP-1R
# [6] = target: human GcgR (Homo sapiens, UniProt P47871); experiment: Functional cAMP activity in the presence of 1% HSA; conditions: read-out: cAMP Rel EC50, hGcgR
# [7] = 0.1% casein, no HSA, geometric mean
# [8] = in the presence of 0.1% casein (no HSA), geometric mean
# T1 sequence (P43220 24-463): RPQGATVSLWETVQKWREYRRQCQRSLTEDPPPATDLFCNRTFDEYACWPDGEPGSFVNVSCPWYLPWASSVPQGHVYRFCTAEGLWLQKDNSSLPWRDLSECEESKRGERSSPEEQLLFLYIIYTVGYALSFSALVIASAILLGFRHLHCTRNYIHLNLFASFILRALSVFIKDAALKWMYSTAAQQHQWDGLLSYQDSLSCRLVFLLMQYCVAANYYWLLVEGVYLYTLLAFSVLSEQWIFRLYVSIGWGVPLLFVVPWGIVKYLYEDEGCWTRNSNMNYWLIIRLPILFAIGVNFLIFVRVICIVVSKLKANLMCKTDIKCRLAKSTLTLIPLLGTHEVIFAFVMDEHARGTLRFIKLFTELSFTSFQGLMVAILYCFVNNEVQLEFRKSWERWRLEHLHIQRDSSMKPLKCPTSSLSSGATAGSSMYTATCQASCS
# human GcgR, sequence (P47871 26-477): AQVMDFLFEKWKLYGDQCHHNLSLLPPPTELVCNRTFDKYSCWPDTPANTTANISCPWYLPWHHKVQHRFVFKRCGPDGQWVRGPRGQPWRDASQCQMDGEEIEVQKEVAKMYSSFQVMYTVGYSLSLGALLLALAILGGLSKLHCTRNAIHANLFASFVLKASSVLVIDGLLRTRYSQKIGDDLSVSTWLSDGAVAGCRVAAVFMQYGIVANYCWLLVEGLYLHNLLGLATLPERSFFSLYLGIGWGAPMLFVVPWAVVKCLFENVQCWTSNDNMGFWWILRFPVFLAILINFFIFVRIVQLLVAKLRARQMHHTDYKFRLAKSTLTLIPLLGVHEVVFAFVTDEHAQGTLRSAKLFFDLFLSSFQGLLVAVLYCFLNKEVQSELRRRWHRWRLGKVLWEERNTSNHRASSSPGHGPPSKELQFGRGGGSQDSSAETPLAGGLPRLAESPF
# hGcgR, sequence (P47871 26-477): as above
Compound,EC50 [1] [nM],EC50 [2] [nM],"EC50 [3, 7] [nM]","EC50 [4, 7] [nM]","EC50 [5, 7] [nM]",EC50 [6] [nM],"EC50 [3, 8] [nM]","EC50 [4, 8] [nM]","EC50 [5, 8] [nM]",EC50 [3] [nM],EC50 [4] [nM],EC50 [5] [nM]
H-Y[Aib]QGT[αMePhe(2-F)]TSD[4Pal][αMeS]I[αMeL]LD[Orn]K([AEEA-γGlu-C18 diacid])AQ[αMe4Pal]EFI[dE][αMeY]LIEGGPPS[Aib][Orn]PPP[Orn]GE-NH2 [Example 1195],44.2,0.637,0.00708,1.74,0.367,242,,,,,,
H-Y[Aib]QGT[αMePhe(2-F)]TSD[Phe(4-CN)]SILLDKQAQK([AEEA-γGlu-C20 diacid])AFIQYLLEGGPSSGEPPPSEG-NH2 [Example 341],395,49.6,,,,2930,0.213,10.7,1.62,,,
H-Y[Aib]QGTFTSDYSI[αMeL]LDKQAAK([AEEA-AEEA-γGlu-C20 diacid])QFVEWLIAGGPSSGEPPPAEG-NH2 [Example 332],298,78.2,,,,3340,0.413,11.8,1.24,,,
H-Y[Aib]QGT[αMePhe(2-F)]TSD[4Pal]SILLDKK([γGlu-γGlu-C18 diacid])AQ[Aib]AFIEYLEEGGPSSGAPPPSGSGE-NH2 [Example 618],88.9,4.63,,,,691,,,,0.0418,5.57,1.53
H-Y[Aib]QGT[αMePhe(2-F)]TSD[4Pal]SI[αMeL]LD[Orn]K([AEEA-γGlu-C18 diacid])AQ[Aib][Orn]FIEYLIEGGPSSGEPPPEEG-NH2 [Example 477],18.7,1.44,,,,716,,,,0.0127,5.26,0.173
CC[C@H](C)[C@H](NC(=O)[C@H](Cc1ccccc1)NC(=O)[C@H](C)NC(=O)C(C)(C)NC(=O)[C@H](CCC(N)=O)NC(=O)[C@H](C)NC(=O)[C@H](CCCCNC(=O)CC[C@H](NC(=O)CC[C@H](NC(=O)CCCCCCCCCCCCCCCCC(=O)O)C(=O)O)C(=O)O)NC(=O)[C@H](CCCCN)NC(=O)[C@H](CC(=O)O)NC(=O)[C@H](CC(C)C)NC(=O)[C@](C)(CC(C)C)NC(=O)[C@@H](NC(=O)[C@H](CO)NC(=O)[C@H](Cc1ccncc1)NC(=O)[C@H](CC(=O)O)NC(=O)[C@H](CO)NC(=O)[C@@H](NC(=O)[C@](C)(Cc1ccccc1F)NC(=O)[C@@H](NC(=O)CNC(=O)[C@H](CCC(N)=O)NC(=O)C(C)(C)NC(=O)[C@@H](N)Cc1ccc(O)cc1)[C@@H](C)O)[C@@H](C)O)[C@@H](C)CC)C(=O)N[C@@H](CCC(=O)O)C(=O)N[C@@H](Cc1ccc(O)cc1)C(=O)N[C@@H](CC(C)C)C(=O)N[C@@H](CO)C(=O)N[C@@H](CCC(=O)O)C(=O)NCC(=O)NCC(=O)N1CCC[C@H]1C(=O)N[C@@H](CO)C(=O)N[C@@H](CO)C(=O)NCC(=O)N[C@@H](C)C(=O)N1CCC[C@H]1C(=O)N1CCC[C@H]1C(=O)N1CCC[C@H]1C(=O)N[C@@H](CO)C(N)=O [Example 446] (H-Y[Aib]QGT[αMePhe(2-F)]TSD[4Pal]SI[αMeL]LDKK([γGlu-γGlu-C18 diacid])AQ[Aib]AFIEYLSEGGPSSGAPPPS-NH2),24.5,3.01,,,,516,,,,0.0351,8.34,0.696
H-Y[Aib]QGT[αMePhe(2-F)]TSD[4Pal]SILLD[Orn]K([γGlu-γGlu-C18 diacid])AQ[αMe4Pal][Orn]FI[dE]YLIEGGPSSGEPPPSGTEE-NH2 [Example 584],137,5.5,,,,497,,,,0.0461,5.29,1
H-Y[Aib]QGTFTSD[4Pal]SQ[αMeL]LD[Orn]K([γGlu-γGlu-C18 diacid])AQ[αMe4Pal]AFIEYLIAGGPSSGEPPPSGS-NH2 [Example 1007],95.1,12,,,,636,0.116,5.34,0.668,,,
H-Y[Aib]QGT[αMePhe(2-F)]TSD[4Pal]SI[αMeL]LD[Orn]K([γGlu-γGlu-C18 diacid])AQ[αMe4Pal]EFI[dE][αMeY]LQEGGPSSGAPPPSGS-NH2 [Example 647],36.1,0.691,,,,1210,,,,0.0177,18.8,0.872
H-Y[Aib]QGT[αMePhe(2-F)]TSD[4Pal][αMeS]I[αMeL]LD[Orn]K([γGlu-γGlu-C18 diacid])AQ[αMe4Pal]EFI[dE][αMeY]LIEGGPSSGAPPPSGGGEEE-NH2 [Example 1219],46.8,0.629,0.0101,1.64,0.624,168,,,,,,
H-Y[Aib]QGTFTSD[4Pal]SQ[αMeL]LDKK([AEEA-γGlu-C18 diacid])AQ[αMe4Pal]AFIEYLLAGGPSSGAPPPSGSEE-NH2 [Example 1037],625,13.7,,,,291,0.221,3.31,5.95,,,
Y[Aib]QGTFTSDFSK[αMeL]LDKK([AEEA-γGlu-C20 diacid])AQ[Aib]AFIQWLLEGGPSSGAPPPSEG-NH2 [Example 39],260,30.5,,,,1090,0.299,10.1,2.13,,,
H-Y[Aib]QGTFTSDYSK[αMeL]LDKK([AEEA-γGlu-C20 diacid])AQ[Aib]AFVQWLLEGGPSSGEPPPSEG-NH2 [Example 343],178,16.7,,,,475,0.184,6.83,1.31,,,
Y[Aib]QGTFTSDFS[Orn][αMeL]LDKK([AEEA-γGlu-C18 diacid])AQ[Aib]AFIEYLIE[Aib]GPSSGAPPPSGS-NH2 [Example 796],125,17.5,,,,1000,0.098,5.3,0.602,,,
H-Y[Aib]QGTFTSDFS[Orn][αMeL]LDKK([AEEA-γGlu-C18 diacid])AQ[Aib]QFIEYLLAGGPSSGAPPPEGS-NH2 [Example 96],836,49.3,,,,2150,0.456,14.1,3.92,,,
H-Y[Aib]QGTFTSD[4Pal]SQ[αMeL]LD[Orn]K([dE-γGlu-C18 diacid])AQ[αMe4Pal]AFIE[αMeY]LIE[Aib]GPSSGEPPPSGSEE-NH2 [Example 1103],183,19.5,,,,1350,0.0723,11.1,1.06,,,
H-Y[Aib]QGTFTSD[4Pal]S[Orn][αMeL]LD[Orn]K([Glu-γGlu-C18 diacid])AQ[Aib]AFIE[αMeY]LLEGGPSSGAPPPSGSEE-NH2 [Example 1066],1850,69.9,,,,4260,0.446,25.4,9.8,,,
H-Y[Aib]QGTFTSD[4Pal]S[Orn][αMeL]LDKK([γGlu-γGlu-γGlu-C18 diacid])AQ[αMe4Pal]AFIEYLIE[Aib]GPSSGAPPPSGS-NH2 [Example 866],483,23.8,,,,669,0.148,4.48,4.01,,,
Y[Aib]QGTFTSD[4Pal]S[Orn][αMeL]LD[Orn]K([AEEA-γGlu-C18 diacid])AQ[Aib]AFIE[αMeY]LLEGGPSSGAPPPSGS-NH2 [Example 933],557,35.1,,,,1530,0.259,5.51,2.32,,,
Y[Aib]Q[dA]T[αMePhe(2-F)]TSD[4Pal][αMeS]I[αMeL]LD[Orn]K([AEEA-γGlu-C18 diacid])AQ[Aib]EFI[dE][αMeY]LIEGGPSSGAPPPSGS-NH2 [Example 1203],38.9,8.5,0.0774,2.58,0.292,436,,,,,,
H-Y[Aib]QGTFTSDFS[Orn][αMeL]LDKK([AEEA-γGlu-C20 diacid])AQ[Aib]AFIEYLLAGGPSSGAPPPSGD-NH2 [Example 81],430,50.2,,,,1580,0.246,7.78,2.19,,,
H-Y[Aib]QGT[αMePhe(2-F)]TSD[4Pal][αMeS]I[αMeL]LD[Orn]K([γGlu-γGlu-C18 diacid])AQ[Aib][Orn]FI[dE][αMeY]LSEGGPSSGEPPPSGTEE-NH2 [Example 561],76.1,10.1,,,,544,,,,0.212,5.43,1.13
